Laboratory results from US20110082133A1, “PYRIDONE COMPOUNDS” (priority 2008, published 2011).

What was measured:
rat EP4 receptor [1] = molecular target: T1, rat EP4 receptor (Rattus norvegicus, UniProt P43114); experiment: Evaluation test on EP4 receptor affinity in rat ([3H]PGE2 receptor binding test, membrane fraction); design: expressed in transfected cells; host or cells: HEK293 cells, transient transfection (Lipofectamine 2000); membrane fraction used; settings: [3H]PGE2 0.3 nM, membrane fraction of rat EP4 expressing HEK293 cells
T1 sequence (P43114 whole entry): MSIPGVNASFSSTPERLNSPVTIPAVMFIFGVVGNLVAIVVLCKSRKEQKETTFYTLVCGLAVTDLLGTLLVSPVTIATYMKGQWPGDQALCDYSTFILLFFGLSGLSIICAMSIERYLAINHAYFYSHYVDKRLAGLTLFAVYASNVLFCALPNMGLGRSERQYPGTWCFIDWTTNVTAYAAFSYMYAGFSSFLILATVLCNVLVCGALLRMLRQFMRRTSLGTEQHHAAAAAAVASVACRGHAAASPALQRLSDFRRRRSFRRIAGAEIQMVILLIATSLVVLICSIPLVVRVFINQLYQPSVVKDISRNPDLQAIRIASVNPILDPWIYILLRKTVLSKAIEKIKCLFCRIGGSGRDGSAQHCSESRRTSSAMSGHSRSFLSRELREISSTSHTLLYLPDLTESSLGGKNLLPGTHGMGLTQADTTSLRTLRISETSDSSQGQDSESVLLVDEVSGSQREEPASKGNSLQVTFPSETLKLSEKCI
Experimental: A rat EP4 receptor cDNA was subcloned into an expression vector (pcDNA3.1-V5-His-topo, manufactured by Invitrogen Corporation) to prepare a rat EP4 expression vector. HEK293 cells were cultured in a collagen type I-treated 15 cm dish (manufactured by Asahi Techno Glass Co. Ltd.) to a confluence of 70%. An Opti-MEM culture medium at 1.2 mL/dish and a transfection reagent (Lipofectamine 2000, manufactured by Invitrogen Corporation) at 60 μL/dish were mixed, followed by being left to stand at room temperature for 5 minutes. Then, the rat EP4 receptor expression vector at 15 μg/dish was added thereto, followed by being left to stand at room temperature for 30 minutes. The liquid mixture of the transfection reagent was added into the dish, followed by culturing for 20 to 24 hours. The cell culture was carried out in a CO2 incubator (37° C., 5% CO2).
The culture medium was removed by suction, 10 mL of cooled PBS was added thereto per 15 cm dish, and the cells were scraped using a cell scraper. After washed with cooled PBS (1,200 rpm, 4° C., 5 minutes), suspended in 6 mL/dish of cooled 20 mM Tris-HCl (pH 7.4; manufactured by Nacalai Tesque Inc., 5 mM EDTA included) and homogenized using a Polytron, the homogenate was centrifuged (26,000 rpm, 20 minutes, 4° C.). The obtained precipitate was resuspended in cooled 20 mM Tris-HCl and homogenized again using a Polytron, and the homogenate was centrifuged (26,000 rpm, 20 minutes, 4° C.). The obtained precipitate was resuspended in 50 mM HEPES (pH 7.5; manufactured by Dojindo Laboratories) at 1 mL per dish, homogenized using a Polytron, and freeze-stored at −80° C. as a membrane fraction. At this time, a part thereof was used for the measurement of the protein concentration. Measurement of the protein concentration was carried out using a Protein assay stain (manufactured by Bio-Rad Laboratories) in accordance with a standard Protocol as appended in duplicate.
[^3H]PGE2 50 μL (final concentration 0.3 nM; manufactured by Perkin Elmer Co., Ltd.), 100 μL (20 μg/well) of the membrane fraction prepared from the rat EP4 expression cell, and 50 μL of a test compound were mixed in a 96-well microplate (manufactured by Sumitomo Bakelite Co., Ltd.), incubated at room temperature for 1 hour, then filtered by suction on a microplate (UniFilter-96 GF/B, manufactured by Perkin Elmer Co., Ltd.) using a cell harvester (FilterMate Harvester, manufactured by Perkin Elmer Co., Ltd.), and washed three times with 300 μL/well of a cooled assay buffer (50 mM HEPES, 10 mM MgCl2). Dilution of [^3H]PGE2 and the membrane fraction was carried out using the assay buffer, and dilution of the test compound and the unlabeled PGE2 was carried out using dimethyl sulfoxide and the assay buffer. The UniFilter-96 GF/B was treated by preliminarily washing twice with 200 μL/well of the cooled assay buffer. The UniFilter-96 GF/B after filtration was dried in a dryer overnight, 50 μL/well of a liquid scintillation cocktail (MicroScint20, manufactured by Perkin Elmer Co., Ltd.) was added thereto, and the radioactivity was then measured using a liquid scintillation counter for a microplate (TopCount, manufactured by Perkin Elmer Co., Ltd.). For measurement of the non-specific binding, an unlabeled PGE2 (final concentration 1 μM; manufactured by Cayman Chemical Company) was added. All of the measurements were carried out in duplicate, and the specific binding amount was determined by subtracting the non-specific binding amount from the total binding amount.
According to the test method as described above, the rat EP4 receptor affinity (Ki) of the compound of the formula (I) was measured. […] In this connection, Ex means Example Compound number.

hindlimb blood flow = experiment: Hindlimb blood flow increasing action in anesthetized rat; format: in vivo, Wistar male rats; settings: 2 hours after administration, solvent group set as 100%
Experimental: Wistar male rats were used. The test compound was orally administered, and after 2 hours, the hindlimb blood was measured using a laser blood flow imaging apparatus (PIM II, manufactured by Integral Corporation). At 20 minutes before the measurement, 60 mg/kg of pentobarbital was intraperitoneally administered to conduct anesthesia.

[2] = system: LPS-induced TNF-α production in THP-1 cells; experiment: Inhibitory action on LPS-induced TNF-α production in THP-1 cells; format: cell-based; settings: Homo sapiens, 3 hours after LPS, ELISA
Experimental: Human monocytic cell line THP-1 cells were suspended in an assay medium (PRMI-1640 containing 10% fetal bovine serum, 100 unit/mL penicillin G sodium, and 100 μg/mL streptomycin sulfate), and seeded onto a 96-well plate at 1×10^5 cells/well. 50 μL/well of an assay medium containing a test compound was added thereto, followed by incubation at 37° C. for 30 minutes. Further, 50 μL/well of an assay medium containing 1 to 5 μg/mL of LPS was added thereto, and the TNF-α concentration in the assay medium of each well after 3 hours was measured. The measurement was carried out by means of a standard ELISA method. A 96-well plate which had been coated overnight with an anti-human TNF monoclonal antibody (clone: MAb1) (manufactured by Becton, Dickinson and Company) as a capture antibody was washed with a wash buffer (PBS containing 0.05% Tween-20), and PBS containing 10% fetal bovine serum was incubated at room temperature for 1 hour to perform blocking. After washing with a wash buffer, 100 μL/well of the assay medium to be measured was incubated at 4° C. overnight. As the standard material to be measured, a recombinant human TNF (manufactured by Becton, Dickinson and Company) was used. After washing with a wash buffer, 100 μL of a biotinylated anti-human TNF monoclonal antibody (clone: MAb11) as a detection antibody was treated at room temperature for 1 hour. After washing with a wash buffer, it was treated with 100 μL/well of an HRP-labeled Streptavidin (manufactured by Zymed Laboratories, Inc.) at room temperature for 30 minutes, and washed again. Treatment was conducted using 100 μL/well of a TMB (3,3′,5,5′-tetramethylbenzidine) substrate liquid at room temperature for 20 minutes in a dark room. A 2 M sulfuric acid was added thereto at 50 μL/well to stop the reaction, and an absorbance at 450 nm/570 nm was measured by means of a plate reader SPECRA max (manufactured by Molecular Devices Inc.).

rat EP4 receptor [3] = molecular target: T1, rat EP4 receptor; experiment: EP4 receptor agonistic action in rat (cAMP increasing action in rat EP4 receptor expression CHO-K1 cells); format: cell-based; design: expressed in transfected cells; settings: cAMP increasing action by 1 μM PGE2 taken as 100%
Experimental: The agonistic activity was evaluated by the cAMP increasing action in the rat EP4 receptor expression cells. The rat EP4 receptor expression vector was introduced into CHO-K1 cells (American Type Culture Collection) to prepare a rat EP4 receptor stable expression cell line. These cells were seeded onto a 96-well microplate at 2×10^4 cell/well, and used for the experiment the next day. The culture medium of each well was removed by suction, 100 μL/well of an assay culture medium (2 μM indomethacin, 0.1% bovine serum albumin-containing α-MEM) was added thereto, and incubated at 37° C. for 1 hour. The culture medium was removed again by suction, and replaced with 100 μL/well of an assay culture medium comprising a test compound and 1 mM IBMX (3-isobutyl-1-methylxanthine). After incubating at 37° C. for 30 minutes, the culture medium was removed by suction, 100 μL/well of a cell lysate (0.2% Triton-X100-containing phosphate buffer physiological saline) was put thereinto, and the plate was shaken for 10 minutes. Using a cAMP femto 2 kit (manufactured by Cis Bio International), the cAMP concentration in the cell lysate was measured. Further, the cAMP increasing action (%) was calculated with the cAMP increasing action by 1 μM PGE2 was taken as 100%.

`CCc1cccc(N(C)Cc2c(Cl)cc(Cl)c(=O)n2CCc2ccc(C(=O)O)cc2)c1` [Example 106] was tested, and the Ki (rat EP4 receptor [1]) was 28 nM and the “Blood flow relative to the group administered with the solvent” value (hindlimb blood flow; dose 0.3 mg/kg oral) was 126%.
For `CN(Cc1c(Cl)cc(Cl)c(=O)n1CCc1ccc(C(=O)O)cc1)c1cccc(C(F)(F)F)c1` [Example 159], the Ki (rat EP4 receptor [1]) was 3.3 nM, the “Blood flow relative to the group administered with the solvent” value (hindlimb blood flow; dose 0.1 mg/kg oral) was 122% and the IC50 [2] was 2.7 nM.
`CCOc1ccc2c(c1)N(Cc1c(Cl)cc(Cl)c(=O)n1CCc1ccc(C(=O)O)cc1)CC2` [Example 10, 4-(2-{3,5-dichloro-6-[(6-ethoxy-2,3-dihydro-1H-indol-1-yl)methyl]-2-oxopyridin-1(2H)-yl}ethyl)benzoic acid] was tested, and the Ki (rat EP4 receptor [1]) was 3.2 nM and the “Blood flow relative to the group administered with the solvent” value (hindlimb blood flow; dose 0.3 mg/kg oral) was 124%.
For `CCC[C@H]1CCCN1Cc1c(Br)ccc(=O)n1CCc1ccc(C(=O)O)cc1` [Example 207], the “Blood flow relative to the group administered with the solvent” value (hindlimb blood flow; dose 1 mg/kg oral) was 140%.
For `CCC[C@H]1CCCN1Cc1c(Cl)cc(Cl)c(=O)n1CCc1ccc(-c2n[nH]c(=O)o2)cc1` [Example 208], the “cAMP increasing action (%) at 10 μM” value (rat EP4 receptor [3]) was 83% and the Ki (rat EP4 receptor [1]) was 2.9 nM.
